Legend:
Bcl-xL = assay: Drug response titration of Bad-BclxL iADAR system using A-1331852; assay type: cell-based, human; conditions: ADAR-Bad-BclxL variant with point mutation F121L, drug added at transfection
UAG-MS2 editing reporter [1] = assay: Stop codon editing reporter (mCherry / mNeonGreen) co-transfected with ADAR variants, fluorescence microscopy / ImageJ quantification; assay type: cell-based, human; conditions: for ADAR editing of the reporter construct depending on fusion position of BAD / Bcl-xL: 50 ng reporter and 50 ng ADAR construct, with or without A-1331852
AlfaNb = conditions: cited from earlier work
Sequence of AlfaNb (as listed by the source): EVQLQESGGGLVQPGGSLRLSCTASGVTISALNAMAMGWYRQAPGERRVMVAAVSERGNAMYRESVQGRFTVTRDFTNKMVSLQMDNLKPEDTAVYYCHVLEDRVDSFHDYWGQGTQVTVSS

UAG-MS2 editing reporter [2] = assay: Stop codon editing reporter (mCherry / mNeonGreen) co-transfected with ADAR variants, flow cytometry (median mNeonGreen to mCherry); assay type: cell-based, human; conditions: for ADAR activity on mCherry-mNeonGreen reporter, no TEV protease: SpyTag / SpyCatcher ADAR variants
Excerpt: For the reporter system, the inventors used the fluorescent protein-epitope tag tandem fusions of mCherry-FLAG and HA-mNeonGreen as the upstream and downstream coding regions. Without DD editing activity, translation is terminated after mCherry-FLAG. Coexpression with MCP-ADAR2-DD was hypothesized to lead to binding of MCP-DD, stop codon UAG editing to UIG, and expression of mNeonGreen (FIG. 1B).
HEK 293 FT cells were co-transfected with plasmids expressing the reporter containing 2 UAG stop codons in the hairpin and a pcDNA3 construct encoding a fusion protein composed of MCP, ADAR2-DD (E488Q), and TagBFP.
Two days later, fluorescence microscopy images were taken of the cell populations. […] The inventors repeated the experiment and analyzed the samples by flow-cytometry.
The inventors transiently co-transfected HEK 293 FT cells with the mCherry-mNeonGreen reporter, MCP-ADAR2-DD variants containing different configurations of ALFA-tag insertions and NbALFA fusions, and uncaging constructs containing miRFP670 fused to ALFA. Without wishing to be bound by theory, it was hypothesized that the intramolecular interaction would inhibit the ADAR2-DD, but that the ALFA tag on the miRFP670 would displace the lower strength ALFA variants (PE and 78), and perhaps at high enough concentrations displace the intramolecular ALFA, and lead to increased editing.
The inventors then made an ADAR-DD variant with an inserted TEV protease cut site (amino acids ENLYFQG, SEQ ID NO: 286) between the C-terminus of ADAR2-DD and the N-terminus of SpyCatcher (FIG. 5C). The inventors co-transfected HEK 293 FT cells with the reporter construct, the ADAR-DD TEVcs variant, and the TEV protease and 48 hours later analyzed the transfected cells via flow cytometry (FIG. 5D-5E).
Mutated versions were then cloned and co-transfected with an editing reporter in the absence and presence of A-1331852, and absolute background and fold change upon drug addition were determined by flow cytometry (see e.g., FIG. 22d and table 11).

GFP-GPI reporter = assay: AUA to AUI editing creating upstream in-frame signal sequence and HA tag, live imaging and HA staining; assay type: cell-based, human
Excerpt: To test this, a reporter construct was designed that contained: an MS2-A editable AUA start codon upstream of the murine IgGκ signal sequence and HA epitope tag (SS-HA), an in frame AUG start codon, GFP, and the glycosylphosphatidylinositol (GPI) anchor sequence from Thymocyte differentiation antigen 1 (GPI in diagram) (see e.g., FIG. 27a). With this reporter, in the absence of editing, the majority of the translated product will be from the AUG codon directly upstream of GFP. This will lead to the translation product residing in the cytoplasm with a non-functional GPI anchor (as this post-translational modification (PTM) must occur in the endoplasmic reticulum (ER) lumen). Upon ADAR editing of the upstream AUA to AUI, translation will initiate upstream of the signal sequence, leading to co-translational translocation of HA-GFP-GPI into the ER lumen, the addition of the GPI anchor PTM, and presentation of HA-GFP on the plasma membrane (see e.g., FIG. 27b). With this construct, the editing can be monitored by either by microscopy (looking for ER & plasma membrane localization) or directly by immunostaining for the HA-tag.
HEK cells were co-transfected with the GFP-GPI reporter and either filler DNA, MCP-dADAR, or MCP-ADAR. A GFP-GPI with a functional start codon before the secretion signal was also transfected as a positive control (GFP-GPI Control). One day after transfection, HEK cells were imaged live, and then fixed and stained for HA tag with a primary anti-HA antibody and a secondary antibody that was conjugated to ALEXAFLUOR 647 (AF647).

AUA reporter = assay: Creation of a START codon (AUA to AUI), EGFPd2/dTomato reporter, flow cytometry; assay type: cell-based, human; conditions: 48 hours post-transfection, n=3
Excerpt: To test this, an ADAR substrate was designed composed of a dsRNA hairpin containing both an AUA-codon with a mismatch at the second adenine to promote specific deamination to AUI (as opposed to IUA or IUI) and an MS2 operator motif (see e.g., FIG. 26b). The design of one large dsRNA hairpin was chosen to promote correct folding of RNA secondary structures. Previous studies have shown that MS2 operators in the 5′UTR of eukaryotic mRNA can lead to decreased translational efficiency when co-expressed with its corresponding coat protein (MS2 coat protein, or MCP), so high and low affinity variants of the MS2 operator (called here MS2-C and MS2-A respectively for the base at the stem loop) were tested with the idea that the lower affinity MS2-A loop would be less likely to inhibit translation by coat protein alone. As positive controls, the same loops were also designed with the correct AUG start codon.
These designs were cloned into pcDNA3 vectors containing a bidirectional CMV promoter driving constitutive dTomato and EGFPd2 (see e.g., FIG. 26c). The S′UTR and start codon of EGFPd2 were replaced with the editable start codon designs so the translational efficiency could be measured by looking at the EGFPd2 fluorescence relative to dTomato when co-expressed with MCP-ADAR. In this construct, if the correct start codon is skipped, the next AUG codon leads to a short, out of frame translation product.
HEK293FT cells were co-transfected with each of the reporter constructs (MS2-C w/ AUG start, MS2-C w/ AUA start, MS2-A w/ AUG start, and MS2-A w/ AUA start) and either filler DNA, inactivated ADAR2-DD (E396A) fused to MCP (MCP-dADAR), or active ADAR2-DD (E488Q) fused to MCP (MCP-ADAR). 48 hours post-transfection, cells were lifted and analyzed by flow cytometry. Transfected cells were gated by dTomato, and the median EGFPd2-to-dTomato ratio for the population was calculated per replicate (n=3) by FLOWJO. 2-Way ANOVA was performed to determine significance.

editable AUG reporters = assay: Destruction of an AUG start codon to IUG, EGFPd2/dTomato reporter, flow cytometry; assay type: cell-based, human; conditions: 48 hours post-transfection; n=3
Excerpt: To test this, an ADAR substrate was designed similar to the substrates tested above, but with an AUG codon in a dsRNA hairpin with a mismatch to promote the deamination of the correct adenine (see e.g., FIG. 28b). This scheme was similarly tested with both the high affinity MS2-C and lower affinity MS2-A variants by cloning these substrates into a pcDNA3 vector with a bidirectional CMV driving the expression of dTomato and EGFPd2 (see e.g., FIG. 28c).
HEK cells were co-transfected with the two different reporter constructs (MS2-C and MS2-A) and cither filler DNA, MCP-dADAR, or MCP-ADAR. 48 hours post-transfection, cells were lifted and analyzed by flow cytometry. Transfected cells were gated by dTomato, and the median EGFPd2-to-dTomato ratio for the population was calculated per replicate (n=3) by FLOWJO. 2-Way ANOVA was performed to determine significance.

## Cc1c(-c2ccc(N3CCc4cccc(C(=O)Nc5nc6ccccc6s5)c4C3)nc2C(=O)O)cnn1CC12CC3CC(CC(C3)C1)C2 [A-1331852]
Bcl-xL; flow cytometry 48 hours
  concentration at which activation maxed out: ~30 nM
Bcl-xL; flow cytometry 48 hours after transfection, n=3
  concentration at which the iADAR activated (as low as): 1 nM

## MCP-linker-BAD-ADAR2-DD(E488Q)-Bcl-xL-TagBFP [BAD-DD-BclxL]
UAG-MS2 editing reporter [1]; HEK cells, two days, n=1
  ADAR editing of the reporter construct depending on fusion position of BAD / Bcl-xL: drug-dependent allostery
UAG-MS2 editing reporter [1]; HEK cells, absence or presence of A-1331852, two days, n=1
  fold change with A-1331852, N-terminal BAD fusion system: 5.9 ×
UAG-MS2 editing reporter [1]; N-terminal BAD, C-terminal Bcl-xL, n=1
  background in the absence of drug compared with the loop insertion conformation: significantly higher

## MCP-linker-BclxL-linker-ADAR2-DDN-Bad(L)-ADAR2(E488Q)-DDC-TagBFP [BclxL-nDD-BAD-cDD]
UAG-MS2 editing reporter [1]; HEK cells, two days, n=1
  ADAR editing of the reporter construct depending on fusion position of BAD / Bcl-xL: did not inhibit the enzymatic activity

## ALFA epitope tag, SRLEEELRRRLTE, SEQ ID NO: 85
AlfaNb
  reported interaction strength with AlfaNb: picomolar

## MCP-linker-ADAR2-DDN-SpyTag- ADAR2(E488Q)-DDC-TEVcs-SpyCatcher-TagBFP [ADAR-DD TEVcs variant]
UAG-MS2 editing reporter [2]; co-transfected TEV protease, flow cytometry 48 hours later
  induced ADAR activity with TEV protease: close to that of the non-engineered ADAR2-DD
UAG-MS2 editing reporter [2]; co-transfected with or without TEV protease, flow cytometry 48 hours later
  dependence of ADAR activity on TEV protease: only active with the addition of TEV protease

## lower affinity ALFA epitope variant, GRLEEELRRRLSP, SEQ ID NO: 86 [ALFA-PE]
AlfaNb
  reported interaction strength with AlfaNb: nanomolar

## MCP-linker-ADAR2-DDN-SpyTag- ADAR2(E488Q)-DDC-TagBFP [SpyTag variant]
UAG-MS2 editing reporter [2]; flow cytometry
  ADAR activity on mCherry-mNeonGreen reporter, no TEV protease: activity was seen

## MCP-linker-ADAR2-DDN-SpyTag- ADAR2(E488Q)-DDC-TagBFP -P2A-T2A-SpyCatcher [T2A-SpyCatcher variant]
UAG-MS2 editing reporter [2]; flow cytometry
  ADAR activity on mCherry-mNeonGreen reporter, no TEV protease: activity was seen

## MCP-linker-ADAR2(E396A & E488Q)-TagBFP [MCP-dADAR]
UAG-MS2 editing reporter [2]; 1 μM vs 0 μM A-1331852, flow cytometry, n=1
  Fold Change: 0.9649
UAG-MS2 editing reporter [2]; HEK cells co-transfected with ADAR reporter and ADAR variant, 0 μM A-1331852, two days after transfection, gated by BFP, n=1
  Flow Cytometry Values, 0 μM (median of the ratio of mNeonGreen to mCherry): 0.0049
UAG-MS2 editing reporter [2]; HEK cells co-transfected with ADAR reporter and ADAR variant, 1 μM A-1331852, two days after transfection, gated by BFP, n=1
  Flow Cytometry Values, 1 μM (median of the ratio of mNeonGreen to mCherry): 0.0047
GFP-GPI reporter; fixed, permeabilized, anti-HA and AF647 secondary
  HA tag staining of cells with AUA construct: not much staining
GFP-GPI reporter; one day after transfection
  cellular distribution of GFP from AUA-SS-GFP-GPI, live imaging: more cytoplasmic distribution
UAG-MS2 editing reporter [1]; HEK 293 FT cells co-transfected with reporter containing 2 UAG stop codons in the hairpin, two days after transfection
  mNeonGreen expression, fluorescence microscopy: minimal mNeonGreen fluorescence
AUA reporter
  effect on translational efficiency from a native AUG start codon, MS2-A substrate: more modest negative effect on translational efficiency
AUA reporter; 2-Way ANOVA
  relative fluorescence (EGFPd2-to-dTomato) of MS2-C reporters compared with filler DNA (NT): significantly decreased the relative fluorescence
Editable AUG reporters
  translational efficiency, MS2-A based AUG construct: significant decrease in translational efficiency

## MCP-linker-BAD-ADAR2-DD(E488Q)-TagBFP [BAD-DD]
UAG-MS2 editing reporter [1]; HEK cells, two days, n=1
  ADAR editing of the reporter construct depending on fusion position of BAD / Bcl-xL: did not affect ADAR editing of the reporter construct
